Data published in patent US5679674A (priority 1992, dated 1997).
Where a name gives a salt, the structure may show the parent alone. Read-outs that look alike come from different tables or passages of the source.

How the values were obtained:
[1] = test system: p-Phenylquinone-induced agony (writhing response) in mice; experiment: animal or person; assay type: in vivo, Male ddy mice; conditions: Mus musculus, sc, 0.25 h, read-out: Analgesic effect (ED50, μg/kg sc) Phenylquinone-induced agony test
[2] = molecular target: T1, k-receptor (Cavia porcellus, UniProt P41144); experiment: biochemical; assay type: binding, guinea pig
T1 construct: The whole brain of male Hertley guinea pigs (Japan SLC); from tissue; host or cells: crude membranes of guinea pig whole brain without cerebellum (Hartley, printed 'Hertley', males)

[3] = molecular target: T2, μ-receptor (Cavia porcellus, UniProt A0ACM8Q262); design: species or system guinea pig; conditions: read-out: Binding to the receptors (IC50, nM) μ
T2 construct: tritiated DAGO (DAMGO) displacement

[4] = test system: p-Phenylquinone-induced agony (writhing response) in mice; experiment: p-Phenylquinone-induced agony test in mice (oral administration); assay type: in vivo, Male ddy mice; conditions: Mus musculus, 0.25 h, read-out: Analgesic effect (Oral Administration) (ED50, mg/kg) Phenylquinone-induced agony test
Method: p-Phenylquinone-induced agony test in mice (oral administration)
According to the method of Siegmund et al. [Proc. Soc. Exptl. Biol. Med., 95, 729 (1957)], the title test was conducted. Male ddy mice (Japan SLC) each weighing about 20 g were fasted for about 16 hours from the day before the test and divided into groups each including from 5 to 10 mice.
A compound to be tested was dissolved in 0.5% tragacanth and administered orally. After 15 minutes, each 0.1 ml/mouse of 0.03% p-phenylquinone solution was injected intraperitoneally. During 5 to 10 minutes after injection, the number of agony reactions (writhing response) observed in each mouse was counted. Those mice showing 1/2 or less of the mean value of the numbers of agony reactions observed in the control mice injected with only physiological saline were regarded as analgesic-effective animals.

[5] = read-out: Binding to the receptors (IC50, nM) k

T1 sequence (P41144 whole entry): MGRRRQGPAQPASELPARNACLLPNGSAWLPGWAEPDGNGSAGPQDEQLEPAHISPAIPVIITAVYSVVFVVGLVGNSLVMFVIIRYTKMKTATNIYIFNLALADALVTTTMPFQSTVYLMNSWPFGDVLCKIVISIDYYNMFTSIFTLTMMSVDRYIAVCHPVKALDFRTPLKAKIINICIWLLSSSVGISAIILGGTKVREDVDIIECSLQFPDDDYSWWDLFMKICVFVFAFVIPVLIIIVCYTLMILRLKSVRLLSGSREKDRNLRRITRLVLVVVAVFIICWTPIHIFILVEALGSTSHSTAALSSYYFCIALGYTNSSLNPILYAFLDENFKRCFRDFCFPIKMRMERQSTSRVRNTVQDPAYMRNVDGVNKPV
T2 sequence (A0ACM8Q262 1-400): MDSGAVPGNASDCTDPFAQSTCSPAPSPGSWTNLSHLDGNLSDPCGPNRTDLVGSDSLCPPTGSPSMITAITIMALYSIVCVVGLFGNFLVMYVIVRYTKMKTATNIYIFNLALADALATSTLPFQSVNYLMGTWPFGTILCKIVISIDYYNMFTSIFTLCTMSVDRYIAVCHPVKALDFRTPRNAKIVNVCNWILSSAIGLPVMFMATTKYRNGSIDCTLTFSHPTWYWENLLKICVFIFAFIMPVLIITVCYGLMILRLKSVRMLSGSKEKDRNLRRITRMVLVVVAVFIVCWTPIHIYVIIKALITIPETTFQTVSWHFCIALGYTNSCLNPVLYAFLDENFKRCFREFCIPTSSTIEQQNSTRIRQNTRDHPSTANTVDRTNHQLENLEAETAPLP

Compound | ED50 [1] | IC50 [2, 5] | IC50 [3] | ED50 [4] | IC50 [2]
O=C([C@@H]1CCc2cc(Cl)c(Cl)cc21)N1CCSC[C@H]1CN1CCCC1 [Corresponding (3R, 1R)] | 23900 µg/kg | 3500 nM | 32000 nM | – | –
O=C1C[C@H](C(=O)N2CCSC[C@H]2CN2CCCC2)c2cc(Cl)c(Cl)cc21 (relative stereo) [Racemate Corresponding to Compound of Example 2] | – | – | – | 0.79 mg/kg | –
O=C([C@@H]1CCc2cc(Cl)c(Cl)cc21)N1CCSC[C@@H]1CN1CCCC1 [Corresponding (3S, 1R)] | 10900 µg/kg | – | 12000 nM | – | 21000 nM
O=C1CC[C@H](C(=O)N2CCSC[C@H]2CN2CCCCC2)c2cc(Cl)c(Cl)cc21 [Example 3, (3R)-3-(1-Piperidinylmethyl)-4-[(1S)-6,7-dichloro-4(3H)-oxo-1,2-dihydro-1-naphthoyl]thiomorpholine hydrochloride] | 13 µg/kg | 1.7 nM | 1800 nM | 0.29 mg/kg | –
O=C([C@H]1CCc2cc(Cl)c(Cl)cc21)N1CCSC[C@@H]1CN1CCCC1 [Corresponding (3S, 1S)] | 7800 µg/kg | – | 15000 nM | – | 920 nM
O=C1CC[C@H](C(=O)N2CCSC[C@H]2CN2CCCCC2)c2cc(Cl)c(Cl)cc21 (relative stereo) [Racemate Corresponding to Compound of Example 3] | – | – | – | 1.22 mg/kg | –
O=C([C@H]1CCc2cc(Cl)c(Cl)cc21)N1CCSC[C@H]1CN1CCCC1 (relative stereo) [Racemate Corresponding to Compound of Example 1] | – | – | – | 0.18 mg/kg | –
O=C([C@H]1CCc2cc(Cl)c(Cl)cc21)N1CCSC[C@H]1CN1CCCC1 [Example 1, (3R)-3-(1-Pyrrolidinylmethyl)-4-[(1S)-(5,6-dichloro-1-indanecarbonyl]thiomorpholine hydrochloride] | 1.3 µg/kg | 0.44 nM | 300 nM | 0.011 mg/kg | –
O=C1C[C@H](C(=O)N2CCSC[C@H]2CN2CCCC2)c2cc(Cl)c(Cl)cc21 [Example 2, (3R)-3-(1-Pyrrolidinylmethyl)-4-[(1S)-3-oxo-5,6-dichloro-1-indanecarbonyl]thiomorpholine hydrochloride] | 0.6 µg/kg | – | 330 nM | 0.031 mg/kg | 0.46 nM
